Key:
[1] = target: T1, Full-length inactive AKT1 (Homo sapiens, UniProt P31749); assay: Inactive Akt HTRF Assay (Akt1)
Description: AKT1 activity was assayed using CisBio KinEASE™ HTRF Assay technology. This technology utilizes a proprietary biotinylated peptide substrate (STKS3), streptavidin labeled XL665 antibody, and STK antibody-Eu^3+-cryptate. AKT1 activation was achieved by the addition of the activating kinases PDK1 and MAPKAPK2, lipid vesicles, and ATP. The extent of STKS3 biotinylated peptide phosphorylation was determined using a phospho-STK antibody-Eu^3+-cryptate and streptavidin labeled XL665 antibody. XL665 was stimulated by Eu^3+-cryptate resulting in a TR-FRET signal proportional to the SKS3 phosphorylation level.

[2] = target: T1, Full-length inactive AKT1; assay: Inactive Akt Alpha Screen Assay; format: biochemical; details: values not marked with "*"; read-out: Akt1 IC50, (AlphaScreen)
How it was run: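 AlphaScreen read-out (excitation 640 nm, emission 570 nm) after 90 min incubation at room temperature in the dark. Signal comes from crosstide phosphorylation by AKT1, which was activated by added PDK1, MAPKAPK2, ATP and lipid vesicles, captured via phospho-AKT substrate antibody and streptavidin beads.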

A2780 = assay: MTS Assay, cell proliferation, A2780; format: cell-based; details: Homo sapiens, read-out: Average of [CELL], IC50, MTS (72 hours; 10 Percent; FBS) A2780
Description: (§1) Cell proliferation analysis. Cell survival was determined by the MTS assay. Briefly, cells were plated in a 96-well plate at 2,000-10,000 cells per well, cultured for 24 hours in complete growth medium, and then treated with various drugs and drug combinations for 72 hours. MTS was added and incubated for 4 hour, followed by assessment of cell viability using the microplate reader at 570 nm. Data were normalized to untreated controls and analyzed with Microsoft Excel.

BT474 = assay: MTS Assay, cell proliferation, BT474; format: cell-based; details: Homo sapiens, BT-474, read-out: Average of [CELL], IC50, MTS (72 hours; 10 Percent; FBS) BT474
Description: as §1

AN3CA = assay: MTS Assay, cell proliferation, AN3CA; format: cell-based; details: Homo sapiens, AN3-CA, read-out: Average of [CELL], IC50, MTS (72 hours; 10 Percent; FBS) AN3CA
Description: as §1

Zr75-1 = assay: MTS Assay, cell proliferation, Zr75-1; format: cell-based; details: Homo sapiens, ZR-75-1, read-out: Average of [CELL], IC50, MTS (72 hours; 10 Percent; FBS) Zr75-1
Description: as §1

LnCap = assay: MTS Assay, cell proliferation, LnCap; format: cell-based; details: Homo sapiens, read-out: Average of [CELL], IC50, MTS (72 hours; 10 Percent; FBS) LnCap
Description: as §1

IGROV = assay: MTS Assay, cell proliferation, IGROV; format: cell-based; details: read-out: Average of [CELL], IC50, MTS (72 hours; 10 Percent; FBS) IGROV
Description: as §1

T1 sequence (P31749 whole entry): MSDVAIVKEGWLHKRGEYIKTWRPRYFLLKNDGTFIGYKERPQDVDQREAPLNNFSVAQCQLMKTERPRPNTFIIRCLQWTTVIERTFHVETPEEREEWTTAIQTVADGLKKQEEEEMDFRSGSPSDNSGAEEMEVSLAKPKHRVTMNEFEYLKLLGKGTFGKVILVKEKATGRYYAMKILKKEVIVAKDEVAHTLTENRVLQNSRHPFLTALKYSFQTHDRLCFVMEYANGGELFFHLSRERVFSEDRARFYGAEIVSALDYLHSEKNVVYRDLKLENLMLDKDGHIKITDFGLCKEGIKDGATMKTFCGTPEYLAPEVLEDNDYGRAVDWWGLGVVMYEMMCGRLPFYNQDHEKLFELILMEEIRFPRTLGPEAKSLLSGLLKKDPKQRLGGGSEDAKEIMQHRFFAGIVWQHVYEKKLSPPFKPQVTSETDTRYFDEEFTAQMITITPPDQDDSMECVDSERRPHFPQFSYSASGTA

SMILES	IC50 [1] [µM]	IC50 [2] [µM]	IC50 (A2780) [µM]	IC50 (BT474) [µM]	IC50 (LnCap) [µM]	IC50 (AN3CA) [µM]	IC50 (Zr75-1) [µM]	IC50 (IGROV) [µM]
Nc1ncccc1-c1nc2cc(Br)cnc2n1-c1ccc(CNS(=O)(=O)c2ccc3ccccc3c2)cc1 [Example 157, N-{4-[2-(2-aminopyridin-3-yl)-6-bromo-3H-imidazo[4,5-b]pyridin-3-yl]benzyl}naphthalene-2-sulfonamide]	8.1	–	–	–	–	–	–	–
Nc1ncccc1-c1nc2cccnc2n1-c1ccc(C(=O)NCc2ccccc2)cc1 [Example 178, 4-[2-(2-aminopyridin-3-yl)-3H-imidazo[4,5-b]pyridin-3-yl]-N-benzylbenzamide]	7.1	–	–	–	–	–	–	–
CC(=O)Nc1cccc(-c2ccc3nc(-c4cccnc4N)n(-c4ccc(CNS(=O)(=O)c5ccccc5)cc4)c3n2)c1 [Example 324, N-(3-(2-(2-aminopyridin-3-yl)-3-(4-(phenylsulfonamidomethyl)phenyl)-3H-imidazo[4,5-b]pyridin-5-yl)phenyl)acetamide]	–	0.014	6.3	2.5	4.2	5	3.6	–
Nc1ncccc1-c1nc2ccc(-c3ccccc3)nc2n1-c1ccc(C2(N)CCC2)cc1 [Example 351, 3-(3-(4-(1-aminocyclobutyl)phenyl)-5-phenyl-3H-imidazo[4,5-b]pyridin-2-yl)pyridin-2-amine]	–	–	0.72	1.3	2.1	0.62	4.2	1.7

The next lines start with results.

IC50 [1] [µM]	IC50 [2] [µM]	IC50 (A2780) [µM]	IC50 (BT474) [µM]	IC50 (LnCap) [µM]	SMILES	IC50 (AN3CA) [µM]	IC50 (Zr75-1) [µM]	IC50 (IGROV) [µM]
7.8	–	–	–	–	Nc1ncccc1-c1nc2cc(-c3ccc(F)cc3)cnc2n1-c1ccc(CNC(=O)c2ccccc2)cc1 [Example 141, N-{4-[2-(2-aminopyridin-3-yl)-6-(4-fluorophenyl)-3H-imidazo[4,5-b]pyridin-3-yl]benzyl}benzamide]	–	–	–
4.5	–	–	–	–	Cc1ccc(-c2cnc3c(c2)nc(-c2cccnc2N)n3-c2ccc(CNC(=O)c3ccccc3)cc2)cc1 [Example 144, N-{4-[2-(2-aminopyridin-3-yl)-6-(4-methylphenyl)-3H-imidazo[4,5-b]pyridin-3-yl]benzyl}benzamide]	–	–	–
–	0.012	6.8	4.2	13	Nc1ncccc1-c1nc2ccc(-c3cn[nH]c3)nc2n1-c1ccc(CNC(=O)c2cccc(F)c2)cc1 [Example 305, N-(4-(2-(2-aminopyridin-3-yl)-5-(1H-pyrazol-4-yl)-3H-imidazo[4,5-b]pyridin-3-yl)benzyl)-3-fluorobenzamide]	12	8.2	–
–	0.035	2.9	3.6	4.9	Nc1ncccc1-c1nc2ccc(-c3ccoc3)nc2n1-c1ccc(CNC(=O)c2cccc(F)c2)cc1 [Example 307, N-(4-(2-(2-aminopyridin-3-yl)-5-(furan-3-yl)-3H-imidazo[4,5-b]pyridin-3-yl)benzyl)-3-fluorobenzamide]	6.3	9.1	–
–	0.021	2.3	1.8	2.6	Nc1ncccc1-c1nc2ccc(-c3cccc(CO)c3)nc2n1-c1ccc(CNC(=O)c2cccc(F)c2)cc1 [Example 308, N-(4-(2-(2-aminopyridin-3-yl)-5-(3-(hydroxymethyl)phenyl)-3H-imidazo[4,5-b]pyridin-3-yl)benzyl)-3-fluorobenzamide]	2.5	4.3	–
